Here are results for 7 compounds from patent US20040215284A1, “Treatment of neuromuscular dysfunction of the lower urinary tract with selective mGlu5 antagonists” (Recordati S.A., priority 2003, published 2004).

The test system of test [1] is rhythmic bladder-voiding contractions in anaesthetised rats. Briefly: Rhythmic bladder-voiding contractions induced by bladder filling in anaesthetised rats. In kind it is in vivo, rat. The settings on record: for BLADDER CONTRACTIONS quiescence time: mean ± SEM; for ED10min (extrapolated dose inducing 10 min of bladder quiescence) / activity as inhibitors of isovolumic voiding contractions (in words): i.v.; for ED10min (extrapolated dose inducing 10 min of bladder quiescence): linear regression; for activity as inhibitors of isovolumic voiding contractions (in words): anaesthetised rats. The procedure:
The animals were housed with free access to food and water and maintained on a forced 12-hour alternating light-dark cycle at 22-24° C. for at least one week, except during the experiment. […] The catheter was tied in place with a ligature around the external urethral orifice and was connected to conventional pressure transducers (Statham P23 ID/P23 XL). […] The bladder was then filled via the recording catheter by incremental volumes of warm (37° C.) saline until reflex bladder-voiding contractions occurred (usually 0.8-1.5 ml). For intravenous injection of bioactive compounds, PE 50 polyethylene tubing filled with physiological saline was inserted into the jugular vein.
From the cystometrogram, the number of contractions recorded 15 minutes before (basal values) and after treatment, as well as the mean amplitude of these contractions (mean height of the peaks in mmHg), were evaluated.
Morphine was tested, too, as a reference standard for this model.

The target of test [2] is Group II (mGlu2 + mGlu3) receptors. In words: Radioligand binding assay at Group II (mGlu2+mGlu3), [3H]LY341495, rat forebrain membranes. The settings on record: for Ki: [3H]LY341495.
Method: Male Sprague Dawley rats (200-300 g, Charles River, Italy) were killed by cervical dislocation and the forebrain (cortex, striatum and hippocampus) and cerebellum were homogenized (2×20 sec) in 50 vols of cold 50 mM Tris buffer pH 7.4, using a Politron homogenizer (Kinematica). […] The final pellets were frozen and stored at −80° C. until use.
iii) Group II (mGlu2+mGlu3): On experimental section pellets from rat forebrain were resuspended in 250 vols of 20 mM HEPES, 2 mM MgCl2, 2 mM CaCl2, pH 7.4. The membranes were incubated in a final volume of 1 ml for 30 min at 0° C. with 1 nM [^3H]LY341495 in the absence or presence of competing drugs.
The filters were then washed with cold buffer and the radioactivity retained on the filters was counted by liquid scintillation spectrometry.
Data were expressed as the mean of pKi(−log Ki)±SE.
The next test addresses mGlu5 (Rattus norvegicus, UniProt P31424). The settings on record: rat forebrain; for Ki: read-out: mGlu5 Ki, [3H]MPEP.
The next test addresses mGlu1a (Homo sapiens, UniProt Q13255). The settings on record: literature, functional models; cited from earlier work.
The target in the next test is mGlu5a (Homo sapiens, UniProt P41594). The settings on record: literature, functional models; cited from earlier work.
The next test deals with T1, mGlu1 (Rattus norvegicus, UniProt P23385).
T1 construct: pellets from rat cerebellum were resuspended; from tissue; host or cells: rat cerebellum membranes (male Sprague Dawley)
T1 sequence (P23385 19-1199): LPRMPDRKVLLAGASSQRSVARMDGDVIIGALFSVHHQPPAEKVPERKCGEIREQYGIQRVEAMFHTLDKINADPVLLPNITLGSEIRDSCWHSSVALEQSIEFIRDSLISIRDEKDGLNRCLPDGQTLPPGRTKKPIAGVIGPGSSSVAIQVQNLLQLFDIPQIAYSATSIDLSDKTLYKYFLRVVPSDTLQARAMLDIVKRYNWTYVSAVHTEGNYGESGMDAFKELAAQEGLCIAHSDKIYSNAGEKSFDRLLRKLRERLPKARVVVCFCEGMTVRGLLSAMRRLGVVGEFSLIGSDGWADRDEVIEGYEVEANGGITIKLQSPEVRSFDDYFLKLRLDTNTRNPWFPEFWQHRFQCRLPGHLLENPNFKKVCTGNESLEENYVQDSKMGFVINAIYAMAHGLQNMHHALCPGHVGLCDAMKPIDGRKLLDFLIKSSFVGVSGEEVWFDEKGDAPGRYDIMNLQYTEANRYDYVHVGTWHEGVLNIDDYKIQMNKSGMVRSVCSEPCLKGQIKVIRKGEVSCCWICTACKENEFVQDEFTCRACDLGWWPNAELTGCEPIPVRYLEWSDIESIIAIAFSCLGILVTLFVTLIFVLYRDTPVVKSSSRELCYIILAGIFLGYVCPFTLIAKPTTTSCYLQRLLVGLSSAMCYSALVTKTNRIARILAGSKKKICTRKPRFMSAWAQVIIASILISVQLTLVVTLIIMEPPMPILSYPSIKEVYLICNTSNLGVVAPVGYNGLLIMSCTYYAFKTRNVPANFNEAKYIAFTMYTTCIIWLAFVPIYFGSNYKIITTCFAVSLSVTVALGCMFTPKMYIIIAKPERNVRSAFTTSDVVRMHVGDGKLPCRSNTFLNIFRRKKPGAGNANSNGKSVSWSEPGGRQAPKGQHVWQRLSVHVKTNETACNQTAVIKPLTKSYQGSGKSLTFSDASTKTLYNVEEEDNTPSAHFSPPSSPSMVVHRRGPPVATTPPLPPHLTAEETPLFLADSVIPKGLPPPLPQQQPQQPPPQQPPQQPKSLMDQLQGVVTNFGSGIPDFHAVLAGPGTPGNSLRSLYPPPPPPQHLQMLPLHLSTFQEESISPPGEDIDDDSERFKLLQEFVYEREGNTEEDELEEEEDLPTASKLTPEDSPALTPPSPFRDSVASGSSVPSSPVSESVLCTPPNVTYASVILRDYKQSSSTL
Briefly: Radioligand binding assay at mGlu1, [3H]quisqualic acid, rat cerebellum membranes. The settings on record: for Ki: [3H]quisqualic acid.

The subject of the next test is conscious rats. Briefly: Cystometric parameters in conscious rats (bladder infused with saline). It counts as in vivo, rat. On the procedure: Male Sprague-Dawley rats [Crl: CD® (SD) IGS BR] of 300-400 g b.w. supplied by Charles River Italia were used. The animals were housed with free access to food and water and maintained on a forced 12-hour-light/12-hour-dark cycle at 22-24° C. of temperature, except during the experiment. To quantify urodynamic parameters in conscious rats, cystometrographic studies were performed according to the procedure previously reported (Guarneri et al., Pharmacol. Res. 24: 75, 1991).
Briefly, the rats were anaesthetized by intraperitoneal administration of 3 ml/kg of Equithensin solution (pentobarbital 30 mg/kg and chloral hydrate 125 mg/kg) and placed in a supine position. An approximately 10 mm long midline incision was made in the shaved and cleaned abdominal wall. The urinary bladder was gently freed from adhering tissues, emptied and then cannulated via an incision in the bladder body, using a polyethylene cannula (0.58 mm internal diameter, 0.96 mm external diameter) which was permanently sutured with silk thread. For intravenous bolus injection, a similar polyethylene tubing filled with physiological saline containing sodium heparin (40 I.U./ml) was inserted into the jugular vein. The cannulae were exteriorized through a subcutaneous tunnel in the retroscapular area, where they were connected to a plastic adapter in order to avoid the risk of removal by the animal. For drug testing, the rats were utilized one day after implantation.
On the day of the experiment, the rats were placed in modified Bollman cages, i.e., restraining cages that were large enough to permit the rats to adopt a normal crouched posture, but narrow enough to prevent turning around. After a stabilization period of about 20 minutes, the free tip of the bladder cannula was connected through a T-shaped tube to a pressure transducer (Statham P23XL) and to a peristaltic pump (Gilson minipuls 2) for continuous infusion of a warm (37° C.) saline solution into the urinary bladder, at a constant rate of 0.1 ml/minute. The intraluminal-pressure signal during infusion of saline into the bladder was continuously recorded on a polygraph (Rectigraph-8K San-ei with BM614/2 amplifier from Biomedica Mangoni) and, from the cystometrogram, two urodynamic parameters were evaluated: bladder volume capacity (BVC) and micturition pressure (MP). BVC (in ml) is defined as the volume of saline infused into the bladder necessary to induce detrusor contraction followed by micturition. MP (in mmHg) is defined as the maximal intravesical pressure caused by contraction during micturition. Basal BVC and MP values were evaluated as the mean of the values observed in the cystometrograms recorded in an initial period of 30-60 minutes. At this point in the assay, the infusion was interrupted and the test compounds were administered either intravenously by the jugular catheter or orally by a stomach tube. The bladder infusion restarted and changes in BVC and MP were evaluated from the mean values obtained in the cystometrograms observed during 1, 2, 3, 4, and 5 hours after treatment. The compounds were administered in a volume of 1 ml/kg and 2 ml/kg for intravenous and oral administration routes, respectively. Groups of control animals received the same amount of vehicle corresponding to a solution of 8% dimethylformamide and 8% Tween 80 in water (final concentrations) for intravenous, or a solution of 0.5% methocel in water for oral route.
Under the given test conditions, measurement of BVC is equivalent to measurement of interval time between micturitions.
All data were expressed as mean±standard error. The percent changes of BVC and MP relative to the basal values, as well as Δ values (difference in ml or in mmHg) of BVC and MP (BVC or MP at time “x” minus basal value), were also evaluated for each rat/time. In the figures, data were reported as percentage changes relative to basal values. […]

The target in another test is mGlu6 (Homo sapiens, UniProt O15303). The settings on record: literature, functional models; cited from earlier work.
The next test has as its target mGlu7 (Homo sapiens, UniProt Q14831). The note with it: literature, functional models; cited from earlier work.
The next test addresses mGlu2 (Homo sapiens, UniProt Q14416). The note with it: cited from earlier work.
For another test, the target named is mGlu8 (Homo sapiens, UniProt O00222). The settings on record: literature, functional models; cited from earlier work.
mGlu8, sequence (O00222 34-908): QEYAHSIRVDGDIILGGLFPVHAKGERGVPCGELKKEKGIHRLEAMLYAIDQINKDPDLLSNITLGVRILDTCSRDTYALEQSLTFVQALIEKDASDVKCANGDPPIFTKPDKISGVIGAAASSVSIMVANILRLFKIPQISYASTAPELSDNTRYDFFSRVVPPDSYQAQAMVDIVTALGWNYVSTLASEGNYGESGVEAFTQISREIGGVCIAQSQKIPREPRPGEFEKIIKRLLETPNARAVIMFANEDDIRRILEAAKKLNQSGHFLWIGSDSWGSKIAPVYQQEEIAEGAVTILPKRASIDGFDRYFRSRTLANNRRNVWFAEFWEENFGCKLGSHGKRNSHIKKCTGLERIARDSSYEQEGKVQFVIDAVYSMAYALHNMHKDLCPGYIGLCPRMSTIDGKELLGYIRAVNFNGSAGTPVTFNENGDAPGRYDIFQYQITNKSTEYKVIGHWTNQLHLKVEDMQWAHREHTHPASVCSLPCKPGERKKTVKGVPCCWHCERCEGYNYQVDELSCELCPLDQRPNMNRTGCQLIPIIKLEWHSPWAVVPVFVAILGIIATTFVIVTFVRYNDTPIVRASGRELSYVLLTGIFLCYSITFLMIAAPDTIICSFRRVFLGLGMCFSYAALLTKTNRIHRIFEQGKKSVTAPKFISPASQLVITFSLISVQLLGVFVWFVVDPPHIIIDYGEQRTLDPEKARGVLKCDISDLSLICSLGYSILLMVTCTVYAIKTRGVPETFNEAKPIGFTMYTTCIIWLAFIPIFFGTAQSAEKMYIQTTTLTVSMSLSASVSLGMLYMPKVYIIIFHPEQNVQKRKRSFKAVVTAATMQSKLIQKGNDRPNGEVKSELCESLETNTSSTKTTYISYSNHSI
The target of another test is mGlu4a (Homo sapiens, UniProt Q14833). The settings on record: literature, functional models; cited from earlier work.
mGlu4a, sequence (Q14833 33-912): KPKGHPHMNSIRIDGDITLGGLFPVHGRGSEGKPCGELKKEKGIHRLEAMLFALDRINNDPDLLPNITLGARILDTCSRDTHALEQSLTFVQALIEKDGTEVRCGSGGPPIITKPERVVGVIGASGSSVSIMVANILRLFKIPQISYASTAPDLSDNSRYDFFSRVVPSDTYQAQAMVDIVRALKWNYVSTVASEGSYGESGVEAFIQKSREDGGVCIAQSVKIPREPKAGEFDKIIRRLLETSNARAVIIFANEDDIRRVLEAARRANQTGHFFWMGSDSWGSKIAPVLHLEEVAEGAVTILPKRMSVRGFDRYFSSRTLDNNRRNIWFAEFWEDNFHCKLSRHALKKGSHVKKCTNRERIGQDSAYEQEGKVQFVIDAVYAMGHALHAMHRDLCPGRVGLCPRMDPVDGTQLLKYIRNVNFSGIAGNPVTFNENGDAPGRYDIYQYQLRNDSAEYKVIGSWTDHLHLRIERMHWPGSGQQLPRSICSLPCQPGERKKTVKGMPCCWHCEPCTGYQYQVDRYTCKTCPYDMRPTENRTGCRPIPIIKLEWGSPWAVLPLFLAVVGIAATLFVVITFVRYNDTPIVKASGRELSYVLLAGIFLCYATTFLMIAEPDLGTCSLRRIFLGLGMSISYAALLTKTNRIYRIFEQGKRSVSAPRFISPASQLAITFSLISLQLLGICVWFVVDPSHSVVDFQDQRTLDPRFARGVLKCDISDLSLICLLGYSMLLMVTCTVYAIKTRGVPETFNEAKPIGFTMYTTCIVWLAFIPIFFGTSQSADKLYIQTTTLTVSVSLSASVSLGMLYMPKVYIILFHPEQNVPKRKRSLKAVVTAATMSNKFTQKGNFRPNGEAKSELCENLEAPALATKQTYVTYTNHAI
Test [3] has as its system conscious rats with bladder infused with dilute acetic acid. In words: Cystometric parameters in conscious rats with bladder infused with dilute acetic acid. In kind it is in vivo, rat. The settings on record: 10 mg/kg oral, bladder infused with 0.2% acetic acid. On the procedure: The method used was that described in Example 4. The basal BVC and MP values were evaluated as the mean of the values observed in the cystometrograms recorded over an initial period of 30-60 minutes. At this point in the test, the infusion was stopped and the test compounds were administered orally via gastric intubation. Infusion into the bladder was resumed, replacing the warm saline solution with dilute acetic acid (0.2%) and the variations in BVC and MP recorded were evaluated as mean values obtained in the cystometrograms 1, 2, 3 and 4 hours after the treatment, relative to the basal values. The compounds were administered in a volume of 2 ml/kg and the groups of control animals received the same amount of vehicle (0.5% Methocel in water) orally.
The statistical analysis of the data was performed as reported in Example 4.

mGlu5, sequence (P31424 21-1203): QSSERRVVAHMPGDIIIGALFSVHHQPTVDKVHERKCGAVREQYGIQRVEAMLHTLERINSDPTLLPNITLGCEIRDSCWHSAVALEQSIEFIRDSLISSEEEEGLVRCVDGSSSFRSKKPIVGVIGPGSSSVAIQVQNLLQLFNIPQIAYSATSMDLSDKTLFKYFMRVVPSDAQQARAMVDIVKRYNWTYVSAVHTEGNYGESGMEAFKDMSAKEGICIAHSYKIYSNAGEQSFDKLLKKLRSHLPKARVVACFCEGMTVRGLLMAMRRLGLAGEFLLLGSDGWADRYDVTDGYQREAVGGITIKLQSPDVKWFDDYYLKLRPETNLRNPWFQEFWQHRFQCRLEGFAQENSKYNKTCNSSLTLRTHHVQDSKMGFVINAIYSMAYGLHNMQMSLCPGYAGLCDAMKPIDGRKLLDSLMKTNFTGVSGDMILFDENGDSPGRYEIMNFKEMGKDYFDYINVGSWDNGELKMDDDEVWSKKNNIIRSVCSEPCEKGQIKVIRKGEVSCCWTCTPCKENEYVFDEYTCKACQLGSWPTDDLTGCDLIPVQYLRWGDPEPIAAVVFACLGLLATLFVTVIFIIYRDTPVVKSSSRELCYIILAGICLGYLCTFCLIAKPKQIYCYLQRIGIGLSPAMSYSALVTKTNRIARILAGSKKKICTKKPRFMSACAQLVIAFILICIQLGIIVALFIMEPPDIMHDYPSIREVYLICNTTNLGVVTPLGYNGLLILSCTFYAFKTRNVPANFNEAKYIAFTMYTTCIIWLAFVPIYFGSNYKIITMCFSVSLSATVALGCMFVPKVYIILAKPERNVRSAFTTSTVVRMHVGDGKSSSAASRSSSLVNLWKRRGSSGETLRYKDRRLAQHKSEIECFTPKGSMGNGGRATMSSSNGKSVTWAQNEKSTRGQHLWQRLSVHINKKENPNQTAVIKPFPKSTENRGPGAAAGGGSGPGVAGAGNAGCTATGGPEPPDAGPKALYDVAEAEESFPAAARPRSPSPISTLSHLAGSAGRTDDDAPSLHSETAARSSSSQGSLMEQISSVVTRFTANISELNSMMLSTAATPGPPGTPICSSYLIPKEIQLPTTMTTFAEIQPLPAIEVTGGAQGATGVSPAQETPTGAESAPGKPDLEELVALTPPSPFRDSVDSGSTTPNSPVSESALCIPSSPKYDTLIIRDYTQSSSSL
mGlu2, sequence (Q14416 19-872): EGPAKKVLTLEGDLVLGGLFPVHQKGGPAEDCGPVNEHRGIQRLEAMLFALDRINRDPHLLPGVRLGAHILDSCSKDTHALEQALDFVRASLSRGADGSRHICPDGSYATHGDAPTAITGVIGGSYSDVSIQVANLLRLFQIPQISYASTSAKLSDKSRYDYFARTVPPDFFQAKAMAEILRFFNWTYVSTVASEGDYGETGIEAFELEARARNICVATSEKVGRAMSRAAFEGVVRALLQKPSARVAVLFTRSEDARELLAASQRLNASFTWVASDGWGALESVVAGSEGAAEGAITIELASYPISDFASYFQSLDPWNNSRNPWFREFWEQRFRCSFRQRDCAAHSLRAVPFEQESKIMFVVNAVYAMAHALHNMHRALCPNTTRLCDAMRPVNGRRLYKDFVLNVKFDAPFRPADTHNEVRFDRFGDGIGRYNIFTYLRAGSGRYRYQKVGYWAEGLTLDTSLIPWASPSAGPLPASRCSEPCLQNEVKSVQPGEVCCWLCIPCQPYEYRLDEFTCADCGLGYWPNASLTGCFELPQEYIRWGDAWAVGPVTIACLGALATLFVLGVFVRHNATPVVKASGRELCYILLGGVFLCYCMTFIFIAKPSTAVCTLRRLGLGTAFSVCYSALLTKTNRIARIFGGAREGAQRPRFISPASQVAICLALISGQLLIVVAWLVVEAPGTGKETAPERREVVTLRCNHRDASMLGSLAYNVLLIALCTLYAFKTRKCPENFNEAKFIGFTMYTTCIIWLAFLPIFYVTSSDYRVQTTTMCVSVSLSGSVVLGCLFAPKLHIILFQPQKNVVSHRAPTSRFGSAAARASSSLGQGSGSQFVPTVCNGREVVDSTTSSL

On to `CN1CC[C@]23c4c5ccc(O)c4O[C@H]2[C@@H](O)C=C[C@H]3[C@H]1C5` [Morphine], for which the “BLADDER CONTRACTIONS quiescence time” value in test [1] (10 μg/kg i.v.) is 2.76 ± 0.93 min; in test [1] (30 μg/kg i.v.) it was 6.89 ± 2.11 min; in test [1] (100 μg/kg i.v.) it was 13.83 ± 2.40 min; in [1] (300 μg/kg i.v.), 18.17 ± 3.60 min. Also, the “ED10min (extrapolated dose inducing 10 min of bladder quiescence)” value (shortened to “ED10min”) in test [1] is 0.05 mg/kg.
By Kd is commonly meant the constant that tells how readily two partners part at equilibrium. On to `N[C@](CC1c2ccccc2Oc2ccccc21)(C(=O)O)[C@H]1C[C@@H]1C(=O)O` [[^3H]LY341495], for which the Kd in test [2] (rat forebrain membranes, saturable binding, read-out: Kd of radioligand binding to mGlu2+mGlu3 subtypes) turned out to be 0.0025 µM.
On to `Cc1nc(C#Cc2cccnc2)cs1` [MTEP, 3-(2-methylthiazol-4-yl)ethynylpyridine], for which the “BLADDER CONTRACTIONS quiescence time” value amounted to 5.52 ± 1.09 min in test [1] (30 μg/kg i.v.), 8.73 ± 2.11 min in [1] (100 μg/kg i.v.), 13.90 ± 2.10 min in test [1] (300 μg/kg i.v.) and 20.96 ± 4.66 min in test [1] (1000 μg/kg i.v.). Also, the “activity as inhibitors of isovolumic voiding contractions (in words)” value (“activity as inhibitors” below) in test [1] is recorded as “active”. Also, the “ED10min” value in test [1] was 0.106 mg/kg. Besides, the “inhibition of the specific binding of [3H]MPEP to mGlu5 receptor (in words)” value at mGlu5 is given as “most potent inhibitors”.
What is called Ki is the equilibrium dissociation constant of an inhibitor or competing ligand from its target. Usually IC50 stands for the concentration at which inhibition is half-maximal. On to `Cc1cc(C(=O)O)ccc1[C@H](N)C(=O)O` [LY 367385], for which the inhibition constant Ki in [2] (rat forebrain) was above 1 µM; at mGlu5 it was above 10 µM; at mGlu1 it was 6 µM. Besides, the “BLADDER CONTRACTIONS quiescence time” value was 1.00 ± 0.29 min in [1] (3000 μg/kg i.v.) and 1.95 ± 0.30 min in test [1] (10000 μg/kg i.v.). In addition, the “activity as inhibitors” value in [1] was “inactive”. Also, the “ED10min” value in test [1] is above 10 mg/kg. Moreover, the IC50 is 8.8 µM on mGlu1a and above 100 µM at mGlu5a. Besides, at mGlu1, the “displacement of [3H]quisqualic acid from its binding sites (in words)” value was “significantly displaced”.
With `Cc1cccc(C#Cc2ccccc2)n1` [MPEP, 2-methyl-6-(phenylethynyl)pyridine], the Ki in [2] (rat forebrain) was above 1 µM; on mGlu1, above 10 µM. In addition, the “BLADDER CONTRACTIONS quiescence time” value in [1] (30 μg/kg i.v.) came to 3.90 ± 1.37 min; in test [1] (100 μg/kg i.v.), 7.09 ± 1.04 min; in test [1] (300 μg/kg i.v.), 12.64 ± 1.72 min; in test [1] (1000 μg/kg i.v.), 22.46 ± 5.35 min. In addition, the “activity as inhibitors” value in test [1] is listed as “active”. Also, the “ED10min” value in [1] is 0.15 mg/kg. Further, the “bladder volume capacity (BVC)” value was “significant increases in BVC” with conscious rats (10 mg/kg i.v., vs basal values and vs control group, FIG. 1); “effective in increasing the bladder volume capacity” in the test with conscious rats (3 and 10 mg/kg i.v., FIG. 1); “significant and dose-dependent increases in the BVC” with conscious rats (oral, 3-10 and 30 mg/kg, effect at 10 mg/kg or higher, FIG. 3); “effective in antagonizing the reduction of the bladder volume capacity” in [3] (FIG. 5). Also, the “micturition pressure (MP)” value in the test with conscious rats (i.v., MPEP 3 and 10 mg/kg, SIB 1893 50 mg/kg, FIG. 2) is given as “only mild effects on the micturition pressure”; in the test with conscious rats (oral, 10 and 30 mg/kg, vs control group, FIG. 4), “significantly reduced the MP”; in test [3] (FIG. 6), “no effect on the micturition pressure”. Further, the IC50 at mGlu6 is above 100 µM; on mGlu1a, above 100 µM; at mGlu7, above 100 µM; on mGlu2 (literature, functional models) it was above 100 µM; on mGlu8, above 100 µM; at mGlu4a, above 100 µM. Moreover, the “inhibition of the specific binding of [3H]MPEP to mGlu5 receptor (in words)” value on mGlu5 was “most potent inhibitors”.
Take `N[C@](CC1c2ccccc2Oc2ccccc21)(C(=O)O)[C@H]1C[C@@H]1C(=O)O` [LY 341495]: in test [2] (rat forebrain), the “displacement of specific binding of [3H]LY341495 to Group II receptors (in words)” value was “displaced with high affinity”. Moreover, the Ki in [2] (rat forebrain) was 0.004 µM. The “BLADDER CONTRACTIONS quiescence time” value in test [1] (100 μg/kg i.v.) was found to be 2.45 ± 1.39 min; in [1] (300 μg/kg i.v.), 4.48 ± 1.31 min; in [1] (1000 μg/kg i.v.) it was 4.65 ± 2.11 min. The “activity as inhibitors” value in test [1] is “inactive”. In [1], the “ED10min” value was above 1 mg/kg.
Turning to `NC1(C(=O)O)CCc2cc(C(=O)O)ccc21` (stereo not drawn) [AIDA], the Ki (in [2] (rat forebrain); at mGlu5; at mGlu1) was above 10 µM throughout. In addition, the results for the “BLADDER CONTRACTIONS quiescence time” value in test [1] (1000 μg/kg i.v.), in test [1] (3000 μg/kg i.v.) and in [1] (10000 μg/kg i.v.) were 1.50 ± 0.54 min, 2.33 ± 1.44 min and 2.35 ± 0.50 min, respectively. Also, in [1], the “activity as inhibitors” value was “inactive”. For the same compound, the “ED10min” value in [1] was above 10 mg/kg. Besides, the “mGlu2 activity (in words)” value at mGlu2 (literature (Moroni et al. 1997)) is “Weak”. The IC50 on mGlu5a and on mGlu4a was above 1000 µM each time.
